According to patent publication US20250282715A1, “SOLID STATE FORMS OF MIRDAMETINIB AND PROCESS FOR PREPARATION THEREOF” (Assia Chemical Industries Ltd., priority 2022, published 2025):

Experiments:
Format in all cases: physicochemical
[1] = Stability to compression (2 tons, XRPD analysis); conditions: pressure of 2 tons for 2 minutes, hydraulic press
Procedure: (§1) A sample, after being powdered in a mortar and pestle, is applied directly on a silicon plate holder. The X-ray powder diffraction pattern was measured with Philips X'Pert PRO X-ray powder diffractometer, equipped with Cu irradiation source=1.54184 Å (Ångström), X'Celerator (2.022° 20) detector. Scanning parameters: angle range: 3-40 deg., step size 0.0167, time per step 37 s, continuous scan.
A sample of Mirdametinib oxalic acid co-crystal Form A was subjected to a pressure of 2 tons for 2 minutes (Atlas® Autopress hydraulic press, set to 2 tons).

[2] = Thermal stability (oven heating, XRPD analysis); conditions: heated in an oven at 100° C. for 30 minutes
Procedure: as §1
Samples of Mirdametinib oxalic acid co-crystal Form A (100 mg) and Form IV were heated in an oven at 100° C. for 30 minutes.

[3] = Hygroscopicity (water absorption at up to 90% RH); conditions: about 25° C.

| Stability to compression: XRPD analysis after mechanical stress [1] | XRPD after heating [2] | XRPD after heating ([2]; listed as Mirdametinib oxalic acid co-crystal Form A) | Hygroscopicity / water absorption [3] | Structure (SMILES) |
| --- | --- | --- | --- | --- |
| resistant to amorphization | Form A | no conversion to other polymorph forms | little or no water absorption | O=C(NOC[C@H](O)CO)c1ccc(F)c(F)c1Nc1ccc(I)cc1F.O=C(O)C(=O)O |
|  | form IV + form I |  |  | O=C(NOC[C@H](O)CO)c1ccc(F)c(F)c1Nc1ccc(I)cc1F [Mirdametinib form IV, N-[(2R)-2,3-dihydroxypropoxyl]-3,4-difluoro-2-[(2-fluoro-4-iodophenyl)amino]benzamide, reference compound] |
